From the NIST ThermoML archive (doi:10.1016/j.fluid.2010.10.028)
Numbers after ± are expanded uncertainties.

Experiment: xn = mol fraction of the nth substance listed
Conditions: Liquid, Vibrating tube method

## CC(C)=O [acetone] + CCCCCCC
367.5 K, 89850 kPa, x1 = 0.801
  mass density: 760.09 ± 1.5 kg/m3
367.5 K, 89870 kPa, x1 = 0.492
  mass density: 727.6 ± 1.6 kg/m3
367.5 K, 94840 kPa, x1 = 0.801
  mass density: 763.33 ± 1.5 kg/m3
367.5 K, 94860 kPa, x1 = 0.492
  mass density: 730.65 ± 1.6 kg/m3
367.5 K, 99820 kPa, x1 = 0.801
  mass density: 766.48 ± 1.5 kg/m3
367.5 K, 104790 kPa, x1 = 0.801
  mass density: 769.51 ± 1.5 kg/m3
367.5 K, 109770 kPa, x1 = 0.801
  mass density: 772.47 ± 1.6 kg/m3
367.5 K, 114840 kPa, x1 = 0.801
  mass density: 775.42 ± 1.6 kg/m3
367.5 K, 119830 kPa, x1 = 0.801
  mass density: 778.22 ± 1.6 kg/m3
367.5 K, 124850 kPa, x1 = 0.801
  mass density: 780.96 ± 1.6 kg/m3
367.5 K, 129850 kPa, x1 = 0.801
  mass density: 783.62 ± 1.6 kg/m3
377.39 K, 1230 kPa, x1 = 0.611
  mass density: 632.91 ± 1.2 kg/m3
377.39 K, 4860 kPa, x1 = 0.611
  mass density: 640.68 ± 1.2 kg/m3
377.39 K, 9830 kPa, x1 = 0.7024
  mass density: 659.14 ± 1.2 kg/m3
377.39 K, 9860 kPa, x1 = 0.611
  mass density: 650.09 ± 1.2 kg/m3
377.39 K, 14860 kPa, x1 = 0.611
  mass density: 658.35 ± 1.2 kg/m3
377.39 K, 39860 kPa, x1 = 0.611
  mass density: 690.09 ± 1.3 kg/m3
377.39 K, 74880 kPa, x1 = 0.611
  mass density: 720.69 ± 1.5 kg/m3
377.39 K, 84850 kPa, x1 = 0.611
  mass density: 727.78 ± 1.5 kg/m3
377.39 K, 99800 kPa, x1 = 0.611
  mass density: 737.52 ± 1.6 kg/m3
377.39 K, 119850 kPa, x1 = 0.611
  mass density: 749.19 ± 1.7 kg/m3
377.39 K, 124860 kPa, x1 = 0.611
  mass density: 751.9 ± 1.7 kg/m3
377.4 K, 1220 kPa, x1 = 0.492
  mass density: 624.83 ± 1.2 kg/m3
377.4 K, 1220 kPa, x1 = 0.7024
  mass density: 641.88 ± 1.2 kg/m3
377.4 K, 1230 kPa, x1 = 0.801
  mass density: 652.62 ± 1.2 kg/m3
377.4 K, 4820 kPa, x1 = 0.7024
  mass density: 649.63 ± 1.2 kg/m3
377.4 K, 4850 kPa, x1 = 0.801
  mass density: 660.44 ± 1.2 kg/m3
377.4 K, 4860 kPa, x1 = 0.492
  mass density: 632.5 ± 1.2 kg/m3
377.4 K, 9850 kPa, x1 = 0.492
  mass density: 641.73 ± 1.2 kg/m3
377.4 K, 9860 kPa, x1 = 0.801
  mass density: 669.95 ± 1.2 kg/m3
377.4 K, 14830 kPa, x1 = 0.7024
  mass density: 667.51 ± 1.2 kg/m3
377.4 K, 14850 kPa, x1 = 0.801
  mass density: 678.33 ± 1.2 kg/m3
377.4 K, 14860 kPa, x1 = 0.492
  mass density: 649.89 ± 1.2 kg/m3
377.4 K, 19830 kPa, x1 = 0.7024
  mass density: 675.07 ± 1.3 kg/m3
377.4 K, 19850 kPa, x1 = 0.492
  mass density: 657.2 ± 1.3 kg/m3
377.4 K, 19850 kPa, x1 = 0.801
  mass density: 685.9 ± 1.3 kg/m3
377.4 K, 19860 kPa, x1 = 0.611
  mass density: 665.8 ± 1.3 kg/m3
377.4 K, 24840 kPa, x1 = 0.492
  mass density: 663.85 ± 1.3 kg/m3
377.4 K, 24840 kPa, x1 = 0.7024
  mass density: 681.95 ± 1.3 kg/m3
377.4 K, 24860 kPa, x1 = 0.611
  mass density: 672.6 ± 1.3 kg/m3
377.4 K, 24870 kPa, x1 = 0.801
  mass density: 692.89 ± 1.3 kg/m3
377.4 K, 29840 kPa, x1 = 0.7024
  mass density: 688.29 ± 1.3 kg/m3
377.4 K, 29860 kPa, x1 = 0.611
  mass density: 678.86 ± 1.3 kg/m3
377.4 K, 34830 kPa, x1 = 0.7024
  mass density: 694.18 ± 1.3 kg/m3
377.4 K, 34840 kPa, x1 = 0.492
  mass density: 675.68 ± 1.3 kg/m3
377.4 K, 34870 kPa, x1 = 0.611
  mass density: 684.68 ± 1.3 kg/m3
377.4 K, 39820 kPa, x1 = 0.7024
  mass density: 699.65 ± 1.3 kg/m3
377.4 K, 39850 kPa, x1 = 0.492
  mass density: 681.01 ± 1.3 kg/m3
377.4 K, 44820 kPa, x1 = 0.7024
  mass density: 704.82 ± 1.3 kg/m3
377.4 K, 44850 kPa, x1 = 0.611
  mass density: 695.17 ± 1.4 kg/m3
377.4 K, 44870 kPa, x1 = 0.492
  mass density: 686.02 ± 1.4 kg/m3
377.4 K, 49820 kPa, x1 = 0.7024
  mass density: 709.68 ± 1.4 kg/m3
377.4 K, 49840 kPa, x1 = 0.492
  mass density: 690.72 ± 1.4 kg/m3
377.4 K, 49850 kPa, x1 = 0.611
  mass density: 699.96 ± 1.4 kg/m3
377.4 K, 54810 kPa, x1 = 0.7024
  mass density: 714.29 ± 1.4 kg/m3
377.4 K, 54870 kPa, x1 = 0.801
  mass density: 725.65 ± 1.4 kg/m3
377.4 K, 54930 kPa, x1 = 0.611
  mass density: 704.59 ± 1.4 kg/m3
377.4 K, 59810 kPa, x1 = 0.7024
  mass density: 718.67 ± 1.4 kg/m3
377.4 K, 59840 kPa, x1 = 0.492
  mass density: 699.41 ± 1.4 kg/m3
377.4 K, 59850 kPa, x1 = 0.801
  mass density: 730.07 ± 1.4 kg/m3
377.4 K, 59940 kPa, x1 = 0.611
  mass density: 708.91 ± 1.4 kg/m3
377.4 K, 64790 kPa, x1 = 0.7024
  mass density: 722.84 ± 1.4 kg/m3
377.4 K, 64830 kPa, x1 = 0.801
  mass density: 734.28 ± 1.4 kg/m3
377.4 K, 64920 kPa, x1 = 0.611
  mass density: 713 ± 1.4 kg/m3
377.4 K, 69890 kPa, x1 = 0.7024
  mass density: 726.94 ± 1.4 kg/m3
377.4 K, 69900 kPa, x1 = 0.611
  mass density: 716.92 ± 1.5 kg/m3
377.4 K, 69920 kPa, x1 = 0.492
  mass density: 707.37 ± 1.5 kg/m3
377.4 K, 69930 kPa, x1 = 0.801
  mass density: 738.44 ± 1.4 kg/m3
377.4 K, 74790 kPa, x1 = 0.4
  mass density: 757.14 ± 1.4 kg/m3
377.4 K, 74790 kPa, x1 = 0.8992
  mass density: 757.14 ± 1.4 kg/m3
377.4 K, 74870 kPa, x1 = 0.7024
  mass density: 730.75 ± 1.5 kg/m3
377.4 K, 74920 kPa, x1 = 0.801
  mass density: 742.33 ± 1.4 kg/m3
377.4 K, 79860 kPa, x1 = 0.7024
  mass density: 734.43 ± 1.5 kg/m3
377.4 K, 79880 kPa, x1 = 0.611
  mass density: 724.31 ± 1.5 kg/m3
377.4 K, 79890 kPa, x1 = 0.492
  mass density: 714.63 ± 1.5 kg/m3
377.4 K, 79910 kPa, x1 = 0.801
  mass density: 746.08 ± 1.5 kg/m3
377.4 K, 84840 kPa, x1 = 0.7024
  mass density: 737.97 ± 1.5 kg/m3
377.4 K, 84870 kPa, x1 = 0.492
  mass density: 718.02 ± 1.6 kg/m3
377.4 K, 84910 kPa, x1 = 0.801
  mass density: 749.68 ± 1.5 kg/m3
377.4 K, 89820 kPa, x1 = 0.7024
  mass density: 741.37 ± 1.5 kg/m3
377.4 K, 89840 kPa, x1 = 0.611
  mass density: 731.15 ± 1.6 kg/m3
377.4 K, 89860 kPa, x1 = 0.492
  mass density: 721.32 ± 1.6 kg/m3
377.4 K, 89880 kPa, x1 = 0.801
  mass density: 753.15 ± 1.5 kg/m3
377.4 K, 94790 kPa, x1 = 0.7024
  mass density: 744.65 ± 1.6 kg/m3
377.4 K, 94820 kPa, x1 = 0.611
  mass density: 734.38 ± 1.6 kg/m3
377.4 K, 94830 kPa, x1 = 0.492
  mass density: 724.48 ± 1.6 kg/m3
377.4 K, 94860 kPa, x1 = 0.801
  mass density: 756.48 ± 1.5 kg/m3
377.4 K, 99780 kPa, x1 = 0.7024
  mass density: 747.85 ± 1.6 kg/m3
377.4 K, 99820 kPa, x1 = 0.492
  mass density: 727.55 ± 1.6 kg/m3
377.4 K, 99840 kPa, x1 = 0.801
  mass density: 759.75 ± 1.5 kg/m3
377.4 K, 104750 kPa, x1 = 0.7024
  mass density: 750.93 ± 1.6 kg/m3
377.4 K, 104780 kPa, x1 = 0.611
  mass density: 740.53 ± 1.6 kg/m3
